According to patent US9512087B2, “Hybrid molecules containing pharmacophores of fluconazole as antifungal agents and their preparation” (Council for Scientific & Industrial Research, priority 2011, dated 2016):
In brackets after ≈: the same amount, converted by molar mass.

Tests used:
Experiment in all cases: Antifungal MIC, broth dilution
[1] = system: F. proliferatum ATCC 10052; type: cell-based, Fusarium proliferatum; conditions: end point 48 hours; for MIC50: Fusarium proliferatum, ATCC10052, RPMI 1640 with MOPS, read-out: Fp01 MIC50
Description: (§1) The compounds of Formula 1 were tested for antifungal activity against Candida albicans, Aspergillus niger and Fusarium proliferatum. In vitro evaluation of antifungal activity was performed by determining the minimum inhibitory concentration (MIC) following standard methods (CLSI: Reference method for broth dilution antifungal susceptibility testing of yeasts; Approved standard, second edition M27-A2, 2002; CLSI: Reference method for broth dilution antifungal susceptibility testing of filamentous fungi; Approved standard M38-A, 2002). Anti-fungal susceptibility testing of these anti-fungal compounds was done by broth dilution method using RPMI 1640 medium with MOPS buffer. Known anti-fungal agents like fluconazole and amphotericin-B were used as positive control. End points were determined after 48 hours visually and by using spectrophotometer wherever necessary. Different dilutions were tried and various sets of experiments performed. The activity parameters are enumerated in Table 5.

A. fumigatus ATCC 46645 = type: cell-based; conditions: end point 48 hours; for MIC50: Aspergillus fumigatus, ATCC46645, RPMI 1640 with MOPS, read-out: Afm01 MIC50
C. albicans ATCC 24433 = type: cell-based, Candida albicans; conditions: end point 48 hours; for MIC80 / MIC50: Candida albicans, ATCC24433, RPMI 1640 with MOPS; for MIC80: read-out: Ca01 A: MIC80; for MIC50: read-out: Ca01 B: MIC50
Description: as §1

C. krusei ATCC 6258 = type: cell-based; conditions: end point 48 hours; for MIC50: Pichia kudriavzevii, ATCC6258, RPMI 1640 with MOPS, read-out: Ck01 MIC50
C. glabrata ATCC 90030 = type: cell-based; conditions: end point 48 hours; for MIC50: Nakaseomyces glabratus, ATCC90030, RPMI 1640 with MOPS, read-out: Cg01 MIC50
C. neoformans ATCC 34664 = type: cell-based; conditions: end point 48 hours; for MIC50: Cryptococcus neoformans, ATCC34664, RPMI 1640 with MOPS, read-out: Cn01 MIC50
C. tropicalis ATCC 750 = type: cell-based; conditions: end point 48 hours; for MIC50: Candida tropicalis, ATCC750, RPMI 1640 with MOPS, read-out: Ct01 MIC50
A. niger ATCC 16404 = type: cell-based, Aspergillus niger; conditions: end point 48 hours; for MIC50: Aspergillus niger, ATCC16404, RPMI 1640 with MOPS, read-out: An01 MIC50
Description: as §1

Question: With `COc1cc(/C=C/C(=O)c2ccc(OCC(O)(Cn3cncn3)c3ccc(F)cc3F)cc2)cc(OC)c1` (stereo not drawn) [Compound 1A-4] as the compound, how does the MIC50 [1] read?
Answer: The MIC50 was over 4 µg/mL.

Question: What about the MIC50 (A. fumigatus ATCC 46645) of the same compound?
Answer: Its MIC50 is over 4 µg/mL.

Question: And the MIC80 (C. albicans ATCC 24433)?
Answer: The MIC80 was 1 µg/mL (≈ 1.92 µM).

Question: What about the MIC50 (C. albicans ATCC 24433) of the same compound?
Answer: The MIC50 was 0.25 µg/mL (≈ 0.479 µM).

Question: And the MIC50 (C. krusei ATCC 6258)?
Answer: The MIC50 was over 4 µg/mL.

Question: What about the MIC50 (C. glabrata ATCC 90030) of the same compound?
Answer: Its MIC50 is 2 µg/mL (≈ 3.83 µM).

Question: What about the MIC50 (C. neoformans ATCC 34664) of the same compound?
Answer: The MIC50 was 2 µg/mL (≈ 3.83 µM).

Question: And the MIC50 (C. tropicalis ATCC 750)?
Answer: The MIC50 was 2 µg/mL (≈ 3.83 µM).

Question: And the MIC50 (A. niger ATCC 16404)?
Answer: Its MIC50 is over 4 µg/mL.

Question: What does the source list for `O=C(/C=C/c1cccs1)c1ccc(OCC(O)(Cn2cncn2)c2ccc(F)cc2)cc1` (stereo not drawn) [Compound 1A-17]?
Answer: MIC50 [1]: > 8 µg/mL; MIC50 (A. fumigatus ATCC 46645): > 8 µg/mL; MIC80 (C. albicans ATCC 24433): 0.5 µg/mL (≈ 1.11 µM); MIC50 (C. albicans ATCC 24433): 0.25 µg/mL (≈ 0.556 µM); MIC50 (C. krusei ATCC 6258): 8 µg/mL (≈ 17.8 µM); MIC50 (C. glabrata ATCC 90030): 0.25 µg/mL (≈ 0.556 µM); MIC50 (C. neoformans ATCC 34664): 1 µg/mL (≈ 2.22 µM); MIC50 (C. tropicalis ATCC 750): 2 µg/mL (≈ 4.45 µM); MIC50 (A. niger ATCC 16404): > 8 µg/mL

Question: Which results are given for `OC(COc1ccc(-c2cc(-c3ccc(Cl)cc3Cl)[nH]n2)cc1)(Cn1cncn1)c1ccc(F)cc1F` (stereo not drawn) [Compound 1D-1, 1-(4-(5-(2,4-dichlorophenyl)-1H-pyrazol-3-yl)phenoxy)-2-(2,4-difluorophenyl)-3-(1H-1,2,4-triazol-1-yl)propan-2-ol]?
Answer: MIC50 [1]: > 4 µg/mL; MIC50 (A. fumigatus ATCC 46645): > 4 µg/mL; MIC80 (C. albicans ATCC 24433): 0.5 µg/mL (≈ 0.922 µM); MIC50 (C. albicans ATCC 24433): 0.5 µg/mL (≈ 0.922 µM); MIC50 (C. krusei ATCC 6258): 2 µg/mL (≈ 3.69 µM); MIC50 (C. glabrata ATCC 90030): 1 µg/mL (≈ 1.84 µM); MIC50 (C. neoformans ATCC 34664): 1 µg/mL (≈ 1.84 µM); MIC50 (C. tropicalis ATCC 750): 0.5 µg/mL (≈ 0.922 µM); MIC50 (A. niger ATCC 16404): > 4 µg/mL

Question: `CC(=O)/C=C/c1ccc(OCC(O)(Cn2cncn2)c2ccc(F)cc2F)cc1` (stereo not drawn) [Compound 1A-25] was tested. Which MIC50 [1] did it give?
Answer: The MIC50 was over 128 µg/mL.

Question: And the MIC50 (A. fumigatus ATCC 46645)?
Answer: Its MIC50 is 8 µg/mL (≈ 20 µM).

Question: What about the MIC80 (C. albicans ATCC 24433) of the same compound?
Answer: The MIC80 was 0.25 µg/mL (≈ 0.626 µM).

Question: What about the MIC50 (C. albicans ATCC 24433) of the same compound?
Answer: Its MIC50 is 0.12 µg/mL (≈ 0.3 µM).

Question: And the MIC50 (C. krusei ATCC 6258)?
Answer: The MIC50 was 8 µg/mL (≈ 20 µM).

Question: What about the MIC50 (C. glabrata ATCC 90030) of the same compound?
Answer: The MIC50 was 0.12 µg/mL (≈ 0.3 µM).

Question: What about the MIC50 (C. neoformans ATCC 34664) of the same compound?
Answer: Its MIC50 is 4 µg/mL (≈ 10 µM).

Question: And the MIC50 (C. tropicalis ATCC 750)?
Answer: Its MIC50 is 2 µg/mL (≈ 5.01 µM).

Question: What about the MIC50 (A. niger ATCC 16404) of the same compound?
Answer: Its MIC50 is 8 µg/mL (≈ 20 µM).

Question: `O=C(c1ccc(OCC(O)(Cn2cncn2)c2ccc(F)cc2F)cc1)C(Br)C(Br)c1ccc(Cl)cc1Cl` (stereo not drawn) [Compound 1B-1, 2,3-Dibromo-3-(2,4-dichlorophenyl)-1-(4-(2-(2,4-difluorophenyl)-2-hydroxy-3-(1H-1,2,4-triazol-1-yl)propoxy)phenyl)propan-1-one] was tested. Which MIC50 [1] did it give?
Answer: Its MIC50 is over 8 µg/mL.

Question: And the MIC50 (A. fumigatus ATCC 46645)?
Answer: The MIC50 was over 8 µg/mL.

Question: What about the MIC80 (C. albicans ATCC 24433) of the same compound?
Answer: The MIC80 was 0.5 µg/mL (≈ 0.724 µM).

Question: And the MIC50 (C. albicans ATCC 24433)?
Answer: The MIC50 was 0.25 µg/mL (≈ 0.362 µM).

Question: What about the MIC50 (C. krusei ATCC 6258) of the same compound?
Answer: Its MIC50 is 2 µg/mL (≈ 2.9 µM).

Question: What about the MIC50 (C. glabrata ATCC 90030) of the same compound?
Answer: Its MIC50 is 0.5 µg/mL (≈ 0.724 µM).

Question: And the MIC50 (C. neoformans ATCC 34664)?
Answer: Its MIC50 is 0.5 µg/mL (≈ 0.724 µM).

Question: And the MIC50 (C. tropicalis ATCC 750)?
Answer: The MIC50 was 1 µg/mL (≈ 1.45 µM).

Question: What about the MIC50 (A. niger ATCC 16404) of the same compound?
Answer: Its MIC50 is over 8 µg/mL.

Question: Which results are given for `OC(/C=C/c1ccc(Cl)cc1Cl)c1ccc(OCC(O)(Cn2cncn2)c2ccc(F)cc2F)cc1` (stereo not drawn) [Compound 1C-1, (E)-3-(2,4-dichlorophenyl)-1-(4-(2-(2,4-difluorophenyl)-2-hydroxy-3-(1H-1,2,4-triazol-1-yl)propoxy)phenyl)prop-2-en-1-ol]?
Answer: MIC50 [1]: > 4 µg/mL; MIC50 (A. fumigatus ATCC 46645): > 4 µg/mL; MIC80 (C. albicans ATCC 24433): 0.5 µg/mL (≈ 0.939 µM); MIC50 (C. albicans ATCC 24433): 0.5 µg/mL (≈ 0.939 µM); MIC50 (C. krusei ATCC 6258): 4 µg/mL (≈ 7.51 µM); MIC50 (C. glabrata ATCC 90030): 0.25 µg/mL (≈ 0.47 µM); MIC50 (C. neoformans ATCC 34664): 0.5 µg/mL (≈ 0.939 µM); MIC50 (C. tropicalis ATCC 750): 1 µg/mL (≈ 1.88 µM); MIC50 (A. niger ATCC 16404): > 4 µg/mL

Question: Which MIC50 [1] does the source give for `O=C(/C=C/c1ccc2ccccc2c1)c1ccc(OCC(O)(Cn2cncn2)c2ccc(F)cc2F)cc1` (stereo not drawn) [Compound 1A-14] here?
Answer: Its MIC50 is over 4 µg/mL.

Question: What about the MIC50 (A. fumigatus ATCC 46645) of the same compound?
Answer: Its MIC50 is over 4 µg/mL.

Question: What about the MIC80 (C. albicans ATCC 24433) of the same compound?
Answer: The MIC80 was 0.5 µg/mL (≈ 0.977 µM).

Question: And the MIC50 (C. albicans ATCC 24433)?
Answer: Its MIC50 is 0.25 µg/mL (≈ 0.489 µM).

Question: And the MIC50 (C. krusei ATCC 6258)?
Answer: Its MIC50 is 1 µg/mL (≈ 1.95 µM).

Question: What about the MIC50 (C. glabrata ATCC 90030) of the same compound?
Answer: Its MIC50 is 0.5 µg/mL (≈ 0.977 µM).

Question: And the MIC50 (C. neoformans ATCC 34664)?
Answer: Its MIC50 is 0.5 µg/mL (≈ 0.977 µM).

Question: What about the MIC50 (C. tropicalis ATCC 750) of the same compound?
Answer: Its MIC50 is 0.5 µg/mL (≈ 0.977 µM).

Question: What about the MIC50 (A. niger ATCC 16404) of the same compound?
Answer: The MIC50 was over 4 µg/mL.

Question: With `Cn1cc(/C=C/C(=O)c2ccc(OCC(O)(Cn3cncn3)c3ccc(F)cc3F)cc2)c2ccccc21` (stereo not drawn) [Compound 1A-16] as the compound, how does the MIC50 [1] read?
Answer: The MIC50 was over 4 µg/mL.

Question: What about the MIC50 (A. fumigatus ATCC 46645) of the same compound?
Answer: The MIC50 was over 4 µg/mL.

Question: What about the MIC80 (C. albicans ATCC 24433) of the same compound?
Answer: Its MIC80 is 0.5 µg/mL (≈ 0.972 µM).

Question: What about the MIC50 (C. albicans ATCC 24433) of the same compound?
Answer: The MIC50 was 0.25 µg/mL (≈ 0.486 µM).

Question: What about the MIC50 (C. krusei ATCC 6258) of the same compound?
Answer: The MIC50 was over 4 µg/mL.

Question: What about the MIC50 (C. glabrata ATCC 90030) of the same compound?
Answer: Its MIC50 is 2 µg/mL (≈ 3.89 µM).

Question: What about the MIC50 (C. neoformans ATCC 34664) of the same compound?
Answer: The MIC50 was 4 µg/mL (≈ 7.77 µM).

Question: What about the MIC50 (C. tropicalis ATCC 750) of the same compound?
Answer: The MIC50 was 2 µg/mL (≈ 3.89 µM).

Question: What about the MIC50 (A. niger ATCC 16404) of the same compound?
Answer: The MIC50 was over 4 µg/mL.

Question: With `CCCCCCCCOc1ccc(C(=O)/C=C/c2ccc(OCC(O)(Cn3cncn3)c3ccc(F)cc3F)cc2)cc1` (stereo not drawn) [Compound 1A-24] as the compound, how does the “Fp01 MIC50” value ([1]; RPMI 1640 with MOPS) read?
Answer: Its value is over 4 µg/mL.

Question: What about the “Afm01 MIC50” value (A. fumigatus ATCC 46645; RPMI 1640 with MOPS) of the same compound?
Answer: The value was over 4 µg/mL.

Question: And the “Ca01 A: MIC80” value (C. albicans ATCC 24433; RPMI 1640 with MOPS)?
Answer: The value was 8 µg/mL.

Question: And the “Ca01 B: MIC50” value (C. albicans ATCC 24433; RPMI 1640 with MOPS)?
Answer: Its value is 4 µg/mL.

Question: And the “Ck01 MIC50” value (C. krusei ATCC 6258; RPMI 1640 with MOPS)?
Answer: The value was over 4 µg/mL.

Question: What about the “Cg01 MIC50” value (C. glabrata ATCC 90030; RPMI 1640 with MOPS) of the same compound?
Answer: Its value is 0.12 µg/mL.

Question: And the “Cn01 MIC50” value (C. neoformans ATCC 34664; RPMI 1640 with MOPS)?
Answer: The value was over 4 µg/mL.

Question: What about the “Ct01 MIC50” value (C. tropicalis ATCC 750; RPMI 1640 with MOPS) of the same compound?
Answer: The value was over 4 µg/mL.

Question: And the “An01 MIC50” value (A. niger ATCC 16404; RPMI 1640 with MOPS)?
Answer: Its value is over 4 µg/mL.
